Data from PubChem BioAssay (NCI).
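Cells were grown in 96-well plates and exposed to each compound for 48 hours at five concentrations; endpoints were interpolated linearly between bracketing concentrations, or set to the highest concentration if not reached. GI50 is the concentration that inhibits growth by half. TGI: concentration producing complete growth inhibition.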

Columns and labels:
Assay in all cases: inhibition of tumour cell growth, NCI panel, 48 h
786-0 renal = tested on: 786-0 renal
A498 renal = tested on: A498 renal
A549 NSCLC = tested on: A549 NSCLC
ACHN renal = tested on: ACHN renal
BT-549 breast = tested on: BT-549 breast
CAKI-1 renal = tested on: CAKI-1 renal
CCRF-CEM leukemia = tested on: CCRF-CEM leukemia
COLO 205 colon = tested on: COLO 205 colon
DU-145 prostate = tested on: DU-145 prostate
EKVX NSCLC = tested on: EKVX NSCLC
HCC-2998 colon = tested on: HCC-2998 colon
HCT-116 colon = tested on: HCT-116 colon
HCT-15 colon = tested on: HCT-15 colon
HL-60(TB) leukemia = tested on: HL-60(TB) leukemia
HOP-62 NSCLC = tested on: HOP-62 NSCLC
HOP-92 NSCLC = tested on: HOP-92 NSCLC
HS 578T breast = tested on: HS 578T breast
HT29 colon = tested on: HT29 colon
IGROV1 ovarian = tested on: IGROV1 ovarian
K-562 leukemia = tested on: K-562 leukemia
KM12 colon = tested on: KM12 colon
LOX IMVI melanoma = tested on: LOX IMVI melanoma
M14 melanoma = tested on: M14 melanoma
MALME-3M melanoma = tested on: MALME-3M melanoma
MCF7 breast = tested on: MCF7 breast
MDA-MB-231 breast = tested on: MDA-MB-231 breast
MDA-MB-435 = tested on: MDA-MB-435
MDA-MB-468 breast = tested on: MDA-MB-468 breast
MOLT-4 leukemia = tested on: MOLT-4 leukemia
NCI-H226 lung = tested on: NCI-H226 lung
NCI-H23 lung = tested on: NCI-H23 lung
NCI-H460 lung = tested on: NCI-H460 lung
NCI-H522 lung = tested on: NCI-H522 lung
NCI/ADR-RES ovarian = tested on: NCI/ADR-RES ovarian
OVCAR-3 ovarian = tested on: OVCAR-3 ovarian
OVCAR-4 ovarian = tested on: OVCAR-4 ovarian
OVCAR-5 ovarian = tested on: OVCAR-5 ovarian
OVCAR-8 ovarian = tested on: OVCAR-8 ovarian
PC-3 prostate = tested on: PC-3 prostate
RPMI-8226 leukemia = tested on: RPMI-8226 leukemia
RXF 393 renal = tested on: RXF 393 renal
SF-268 CNS = tested on: SF-268 CNS
SF-295 CNS = tested on: SF-295 CNS
SF-539 CNS = tested on: SF-539 CNS
SK-MEL-2 melanoma = tested on: SK-MEL-2 melanoma
SK-MEL-28 melanoma = tested on: SK-MEL-28 melanoma
SK-MEL-5 melanoma = tested on: SK-MEL-5 melanoma
SK-OV-3 ovarian = tested on: SK-OV-3 ovarian
SN12C renal = tested on: SN12C renal
SNB-19 CNS = tested on: SNB-19 CNS
SNB-75 CNS = tested on: SNB-75 CNS
SR leukemia = tested on: SR leukemia
SW-620 colon = tested on: SW-620 colon
T-47D breast = tested on: T-47D breast
TK-10 renal = tested on: TK-10 renal
U251 CNS = tested on: U251 CNS
UACC-257 melanoma = tested on: UACC-257 melanoma
UACC-62 melanoma = tested on: UACC-62 melanoma
UO-31 renal = tested on: UO-31 renal

`COc1cnc2c(c1)C(=O)c1c-2n(CCCNCCO)c(=O)c2cc(F)ccc12` gave a GI50 (786-0 renal) of 277 nM, a TGI (786-0 renal) of 962 nM and a GI50 (A498 renal) of 1440 nM. It also gave a TGI (A498 renal) of 7880 nM, a GI50 (A549 NSCLC) of 198 nM and a TGI (A549 NSCLC) of 1100 nM. It also gave a GI50 (ACHN renal) of 175 nM, a TGI (ACHN renal) of 465 nM and a GI50 (BT-549 breast) of 969 nM. It also gave a TGI (BT-549 breast) of 4040 nM, a GI50 (CAKI-1 renal) of 220 nM and a TGI (CAKI-1 renal) of 1680 nM. The GI50 (CCRF-CEM leukemia) was 206 nM, the TGI (CCRF-CEM leukemia) was 966 nM and the GI50 (COLO 205 colon) was 838 nM. The TGI (COLO 205 colon) was 2770 nM, the GI50 (DU-145 prostate) was 287 nM and the TGI (DU-145 prostate) was 3590 nM. It also gave a GI50 (EKVX NSCLC) of 1210 nM, a TGI (EKVX NSCLC) of 5140 nM and a GI50 (HCC-2998 colon) of 549 nM. It also gave a TGI (HCC-2998 colon) of 1700 nM, a GI50 (HCT-116 colon) of 183 nM and a TGI (HCT-116 colon) of 657 nM. It also gave a GI50 (HCT-15 colon) of 328 nM, a TGI (HCT-15 colon) of 1560 nM and a GI50 (HL-60(TB) leukemia) of 190 nM. The TGI (HL-60(TB) leukemia) was 1370 nM, the GI50 (HOP-62 NSCLC) was 207 nM and the TGI (HOP-62 NSCLC) was 605 nM. It also gave a GI50 (HOP-92 NSCLC) of 1660 nM, a TGI (HOP-92 NSCLC) of 7260 nM and a GI50 (HS 578T breast) of 2020 nM. For the same molecule, the TGI (HS 578T breast) was 12400 nM, the GI50 (HT29 colon) was 300 nM and the TGI (HT29 colon) was 1380 nM. The GI50 (IGROV1 ovarian) was 510 nM, the TGI (IGROV1 ovarian) was 2680 nM and the GI50 (K-562 leukemia) was 280 nM. It also gave a TGI (K-562 leukemia) of 6050 nM, a GI50 (KM12 colon) of 872 nM and a TGI (KM12 colon) of 10500 nM. For the same molecule, the GI50 (LOX IMVI melanoma) was 167 nM, the TGI (LOX IMVI melanoma) was 502 nM and the GI50 (M14 melanoma) was 589 nM. It also gave a TGI (M14 melanoma) of 2410 nM, a GI50 (MALME-3M melanoma) of 851 nM and a TGI (MALME-3M melanoma) of 2560 nM. It also gave a GI50 (MCF7 breast) of 101 nM, a TGI (MCF7 breast) of 1700 nM and a GI50 (MDA-MB-231 breast) of 1640 nM. The TGI (MDA-MB-231 breast) was 4100 nM, the GI50 (MDA-MB-435) was 1270 nM and the TGI (MDA-MB-435) was 4520 nM. It also gave a GI50 (MDA-MB-468 breast) of 160 nM, a TGI (MDA-MB-468 breast) of 351 nM and a GI50 (MOLT-4 leukemia) of 174 nM. The TGI (MOLT-4 leukemia) was 757 nM, the GI50 (NCI-H226 lung) was 452 nM and the TGI (NCI-H226 lung) was 1320 nM. It also gave a GI50 (NCI-H23 lung) of 259 nM, a TGI (NCI-H23 lung) of 785 nM and a GI50 (NCI-H460 lung) of 198 nM. It also gave a TGI (NCI-H460 lung) of 908 nM, a GI50 (NCI-H522 lung) of 420 nM and a TGI (NCI-H522 lung) of 1830 nM. The GI50 (NCI/ADR-RES ovarian) was 678 nM, the TGI (NCI/ADR-RES ovarian) was 2580 nM and the GI50 (OVCAR-3 ovarian) was 819 nM. The TGI (OVCAR-3 ovarian) was 6510 nM, the GI50 (OVCAR-4 ovarian) was 1710 nM and the TGI (OVCAR-4 ovarian) was 8650 nM. For the same molecule, the GI50 (OVCAR-5 ovarian) was 661 nM, the TGI (OVCAR-5 ovarian) was 2420 nM and the GI50 (OVCAR-8 ovarian) was 555 nM. For the same molecule, the TGI (OVCAR-8 ovarian) was 2790 nM, the GI50 (PC-3 prostate) was 667 nM and the TGI (PC-3 prostate) was 10500 nM. The GI50 (RPMI-8226 leukemia) was 250 nM, the TGI (RPMI-8226 leukemia) was 1880 nM and the GI50 (RXF 393 renal) was 885 nM. It also gave a TGI (RXF 393 renal) of 2540 nM, a GI50 (SF-268 CNS) of 1200 nM and a TGI (SF-268 CNS) of 11000 nM. It also gave a GI50 (SF-295 CNS) of 306 nM, a TGI (SF-295 CNS) of 1230 nM and a GI50 (SF-539 CNS) of 326 nM. It also gave a TGI (SF-539 CNS) of 1220 nM, a GI50 (SK-MEL-2 melanoma) of 2360 nM and a TGI (SK-MEL-2 melanoma) of 4360 nM. The GI50 (SK-MEL-28 melanoma) was 1920 nM, the TGI (SK-MEL-28 melanoma) was 5690 nM and the GI50 (SK-MEL-5 melanoma) was 477 nM. The TGI (SK-MEL-5 melanoma) was 1640 nM, the GI50 (SK-OV-3 ovarian) was 668 nM and the TGI (SK-OV-3 ovarian) was 2450 nM. For the same molecule, the GI50 (SN12C renal) was 287 nM, the TGI (SN12C renal) was 1560 nM and the GI50 (SNB-19 CNS) was 666 nM. It also gave a TGI (SNB-19 CNS) of 8060 nM, a GI50 (SNB-75 CNS) of 778 nM and a TGI (SNB-75 CNS) of 5310 nM. The GI50 (SR leukemia) was 97.1 nM, the GI50 (SW-620 colon) was 367 nM and the TGI (SW-620 colon) was 2610 nM. It also gave a GI50 (T-47D breast) of 269 nM, a TGI (T-47D breast) of 1550 nM and a GI50 (TK-10 renal) of 1470 nM. It also gave a TGI (TK-10 renal) of 4180 nM, a GI50 (U251 CNS) of 268 nM and a TGI (U251 CNS) of 3240 nM. For the same molecule, the GI50 (UACC-257 melanoma) was 2130 nM, the TGI (UACC-257 melanoma) was 7970 nM and the GI50 (UACC-62 melanoma) was 496 nM. For the same molecule, the TGI (UACC-62 melanoma) was 1830 nM, the GI50 (UO-31 renal) was 195 nM and the TGI (UO-31 renal) was 1170 nM.
